According to PubChem BioAssay (NCI):
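Each compound was tested at five concentrations against cells in 96-well plates for 48 hours. Definition used: TGI = concentration required for complete inhibition of growth.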

Experiments:
Assay in all cases: DTP human tumour cell line panel, 48 h
SK-OV-3 ovarian = test system: SK-OV-3 ovarian
SNB-75 CNS = test system: SNB-75 CNS
MDA-MB-231 breast = test system: MDA-MB-231 breast
HOP-92 NSCLC = test system: HOP-92 NSCLC
OVCAR-4 ovarian = test system: OVCAR-4 ovarian
DU-145 prostate = test system: DU-145 prostate
PC-3 prostate = test system: PC-3 prostate
OVCAR-3 ovarian = test system: OVCAR-3 ovarian
RPMI-8226 leukemia = test system: RPMI-8226 leukemia
NCI/ADR-RES ovarian = test system: NCI/ADR-RES ovarian
SF-295 CNS = test system: SF-295 CNS
SF-268 CNS = test system: SF-268 CNS
NCI-H460 lung = test system: NCI-H460 lung
TK-10 renal = test system: TK-10 renal
SK-MEL-28 melanoma = test system: SK-MEL-28 melanoma
CCRF-CEM leukemia = test system: CCRF-CEM leukemia
K-562 leukemia = test system: K-562 leukemia
MDA-MB-435 = test system: MDA-MB-435
U251 CNS = test system: U251 CNS
SK-MEL-2 melanoma = test system: SK-MEL-2 melanoma

Measured: TGI

CC(C)[C@@H]1CC[C@@H](C)C[C@H]1OC(=O)/C=C1\C(C(=O)O[C@@H]2C[C@H](C)CC[C@H]2C(C)C)[C@H]2C=C[C@@H]1O2 (stereo partly drawn)
> 100 µM: SK-OV-3 ovarian | SNB-75 CNS | MDA-MB-231 breast | HOP-92 NSCLC | OVCAR-4 ovarian | DU-145 prostate | PC-3 prostate | OVCAR-3 ovarian | RPMI-8226 leukemia | NCI/ADR-RES ovarian | SF-295 CNS | SF-268 CNS | NCI-H460 lung | TK-10 renal | SK-MEL-28 melanoma | CCRF-CEM leukemia | K-562 leukemia | MDA-MB-435 | U251 CNS

O=c1[nH]c2ccc(Cl)cc2o1
> 100 µM: SK-OV-3 ovarian | SNB-75 CNS | MDA-MB-231 breast | HOP-92 NSCLC | OVCAR-4 ovarian | DU-145 prostate | PC-3 prostate | OVCAR-3 ovarian | RPMI-8226 leukemia | NCI/ADR-RES ovarian | SF-295 CNS | SF-268 CNS | NCI-H460 lung | TK-10 renal | CCRF-CEM leukemia | K-562 leukemia | MDA-MB-435 | U251 CNS

CC1(C)OC[C@H](COCOP2(=O)Oc3ccc4ccccc4c3-c3c(ccc4ccccc34)O2)O1
28.5 µM: HOP-92 NSCLC
33.3 µM: NCI-H460 lung
27.6 µM: PC-3 prostate
27 µM: SK-MEL-28 melanoma
39.1 µM: SF-268 CNS
26.5 µM: MDA-MB-435
31.9 µM: U251 CNS
84.8 µM: CCRF-CEM leukemia
73.3 µM: SK-OV-3 ovarian
80.6 µM: K-562 leukemia
32.2 µM: DU-145 prostate | SF-295 CNS
35.6 µM: TK-10 renal
31 µM: MDA-MB-231 breast
29.6 µM: OVCAR-3 ovarian
36 µM: NCI/ADR-RES ovarian

O=C(Cn1c(C(=O)/C=C/c2ccc(Cl)cc2)nc2ccccc21)c1ccc(Cl)cc1
63 µM: NCI/ADR-RES ovarian
39.5 µM: SK-MEL-2 melanoma
62.6 µM: SK-MEL-28 melanoma
98.5 µM: TK-10 renal
50.7 µM: OVCAR-4 ovarian
49.7 µM: RPMI-8226 leukemia
37.5 µM: MDA-MB-435
33.4 µM: U251 CNS
22.9 µM: OVCAR-3 ovarian
52 µM: MDA-MB-231 breast
28.9 µM: NCI-H460 lung
56.1 µM: DU-145 prostate
8.45 µM: CCRF-CEM leukemia
> 100 µM: SK-OV-3 ovarian | HOP-92 NSCLC | PC-3 prostate | SF-268 CNS | K-562 leukemia

C[C@H](CCC(=O)NCCS(=O)(=O)O)[C@H]1CC[C@H]2[C@@H]3[C@H](O)C[C@@H]4C[C@H](O)CC[C@]4(C)[C@H]3CC[C@]12C
> 100 µM: SK-OV-3 ovarian | MDA-MB-231 breast | HOP-92 NSCLC | OVCAR-4 ovarian | DU-145 prostate | PC-3 prostate | OVCAR-3 ovarian | RPMI-8226 leukemia | NCI/ADR-RES ovarian | SF-295 CNS | SK-MEL-2 melanoma | SF-268 CNS | NCI-H460 lung | TK-10 renal | SK-MEL-28 melanoma | CCRF-CEM leukemia | K-562 leukemia | MDA-MB-435 | U251 CNS

C=CCc1oc(C)nc1CCCC
> 100 µM: SK-OV-3 ovarian | SNB-75 CNS | MDA-MB-231 breast | HOP-92 NSCLC | OVCAR-4 ovarian | DU-145 prostate | PC-3 prostate | OVCAR-3 ovarian | NCI/ADR-RES ovarian | SF-295 CNS | SF-268 CNS | NCI-H460 lung | TK-10 renal | SK-MEL-28 melanoma | CCRF-CEM leukemia | K-562 leukemia | MDA-MB-435 | U251 CNS

CC(=O)NC1CC(C(C)(C)NC(C)=O)CC=C1C (stereo not drawn)
> 100 µM: SK-OV-3 ovarian | SNB-75 CNS | MDA-MB-231 breast | HOP-92 NSCLC | OVCAR-4 ovarian | DU-145 prostate | PC-3 prostate | OVCAR-3 ovarian | NCI/ADR-RES ovarian | SF-295 CNS | SF-268 CNS | NCI-H460 lung | TK-10 renal | SK-MEL-28 melanoma | CCRF-CEM leukemia | K-562 leukemia | MDA-MB-435 | U251 CNS

C=CCSC1=N/C(=C\c2ccc(OC)cc2)C(=O)N1CC=C
78 µM: CCRF-CEM leukemia
80.1 µM: PC-3 prostate
91.5 µM: SK-MEL-2 melanoma
> 100 µM: SK-OV-3 ovarian | MDA-MB-231 breast | HOP-92 NSCLC | OVCAR-4 ovarian | DU-145 prostate | OVCAR-3 ovarian | NCI/ADR-RES ovarian | SF-295 CNS | SF-268 CNS | NCI-H460 lung | TK-10 renal | SK-MEL-28 melanoma | K-562 leukemia | MDA-MB-435 | U251 CNS
42 µM: RPMI-8226 leukemia

CO[C@@H]1C[C@H]2[C@@H]3CC[C@H]([C@H](C)COC(C)=O)[C@@]3(C)CC[C@@H]2[C@@]2(C)CC[C@H]3C[C@]312
> 100 µM: SNB-75 CNS | MDA-MB-231 breast | HOP-92 NSCLC | OVCAR-4 ovarian | DU-145 prostate | PC-3 prostate | OVCAR-3 ovarian | RPMI-8226 leukemia | NCI/ADR-RES ovarian | SF-295 CNS | SF-268 CNS | NCI-H460 lung | TK-10 renal | SK-MEL-28 melanoma | CCRF-CEM leukemia | K-562 leukemia | MDA-MB-435 | U251 CNS

COc1ccc(/C=C2\Sc3nnc(-c4ccccc4)n3N=C2c2cc(F)c(Cl)cc2Cl)cc1OC
> 100 µM: SK-OV-3 ovarian | MDA-MB-231 breast | HOP-92 NSCLC | OVCAR-4 ovarian | DU-145 prostate | PC-3 prostate | OVCAR-3 ovarian | RPMI-8226 leukemia | NCI/ADR-RES ovarian | SF-295 CNS | SK-MEL-2 melanoma | SF-268 CNS | NCI-H460 lung | TK-10 renal | SK-MEL-28 melanoma | CCRF-CEM leukemia | K-562 leukemia | MDA-MB-435 | U251 CNS

O=c1oc2ccccc2c(O)c1C(c1cccc(C(c2c(O)c3ccccc3oc2=O)c2c(O)c3ccccc3oc2=O)c1)c1c(O)c2ccccc2oc1=O
> 100 µM: SK-OV-3 ovarian | HOP-92 NSCLC | DU-145 prostate | PC-3 prostate | OVCAR-3 ovarian | NCI/ADR-RES ovarian | SF-295 CNS | SK-MEL-2 melanoma | SF-268 CNS | NCI-H460 lung | TK-10 renal | SK-MEL-28 melanoma | MDA-MB-435 | U251 CNS
76.6 µM: RPMI-8226 leukemia
53.5 µM: K-562 leukemia
41.6 µM: SNB-75 CNS
99.3 µM: MDA-MB-231 breast
69.3 µM: CCRF-CEM leukemia

CC1=NN(C(=O)CC(=O)NC(=O)/C=C\c2ccccc2)C(=O)C1N=Nc1ccc([N+](=O)[O-])cc1 (stereo not drawn)
97.4 µM: HOP-92 NSCLC
> 100 µM: SK-OV-3 ovarian | SNB-75 CNS | MDA-MB-231 breast | DU-145 prostate | PC-3 prostate | OVCAR-3 ovarian | RPMI-8226 leukemia | NCI/ADR-RES ovarian | SF-295 CNS | SF-268 CNS | NCI-H460 lung | TK-10 renal | SK-MEL-28 melanoma | CCRF-CEM leukemia | K-562 leukemia | MDA-MB-435 | U251 CNS

CC(=O)N1C(CCc2ccccc2)CC(C)(C=O)C1Cc1ccc(O[Si](C(C)C)(C(C)C)C(C)C)cc1 (stereo not drawn)
8.39 µM: MDA-MB-435
31.1 µM: NCI/ADR-RES ovarian
18.4 µM: SNB-75 CNS
16.8 µM: OVCAR-4 ovarian
11.8 µM: OVCAR-3 ovarian
19.6 µM: SF-295 CNS
23.7 µM: HOP-92 NSCLC
13.7 µM: TK-10 renal
9.05 µM: NCI-H460 lung
18.7 µM: SK-MEL-28 melanoma
5.03 µM: RPMI-8226 leukemia
15.8 µM: SF-268 CNS
13.3 µM: U251 CNS
29.3 µM: SK-OV-3 ovarian
18.9 µM: DU-145 prostate
8.02 µM: SK-MEL-2 melanoma
11.1 µM: MDA-MB-231 breast
> 26.1 µM: K-562 leukemia
12.8 µM: PC-3 prostate
